Results reported in US20090206245A1, “Mass analysis method using fine metal particles” (Shionogi CO., Ltd, priority 2004, published 2009).

Biological target: β1-4 galactosyltransferase (GalT)
Experiment: Inhibiting activity of UDP against GalT reaction on a sugar chain (GlcNAc)-fine gold particle complex, tracked by MALDI-TOF MS
Assay type: biochemical
Details: GlcNAc-Au 50 μM, UDP-Gal 400 μM, four mU GalT, HEPES buffer (10 mM MnCl2, 0.15 M NaCl), 25° C., 60 minutes; from plot of FIG. 8
Description: 100 μL of MHEPES buffer solution (10 mM MnCl2, 0.15 M NaCl) of the sugar chain-fine gold particles (GlcNAc-Au:50 μM) produced in accordance with Example 4 and UDP-Gal (400 μM), was prepared. Four mU of β1-4 galactosyltransferase (GalT) was added to the buffer solution, and the sugar chain elongation reaction was tracked at 25° C. by using MALDI-TOF Mass spectroscopy. The reaction solution was not subjected to centrifugal filtration, but to MALDI-TOF mass spectrometry using 2,5-dihydroxybenzoic acid (DHB) as a matrix (FIG. 6). […] FIG. 7 indicates a plot representing temporal variation in extent of the sugar-chain elongation reaction, which was derived from the spectrum shown in FIG. 6.
100 μL of MHEPES buffer solution (10 mM MnCl2, 0.15 M NaCl) of the sugar chain-fine gold particles (GlcNAc-Au: 50 μM) produced in accordance with Example 4 and UDP-Gal (400 μM), was prepared. Four mU of β1-4 galactosyltransferase (GalT) and UDP (prepared at nine concentration levels in the range of 0-50 μM) was then added to the buffer solution, and the solution was subjected to reaction at 25° C. for 60 minutes.

IC50: 300 µM
Structure (SMILES): O=c1ccn([C@@H]2O[C@H](COP(=O)(O)OP(=O)(O)O)[C@@H](O)[C@H]2O)c(=O)[nH]1 [UDP]
